Measured values: patent US20050222040A1, “Vertebrate peptide modulators of lipid metabolism” (BLM Group, Inc., priority 2004, published 2005)
Non-standard residues stand in square brackets, D forms with d. No end group written: not given here. pGlu = O=C1CC[C@@H](C(=O)O)N1

Test system: human adipocytes
Assay: Glycerol release assay (lipolysis) in differentiated human adipocytes
Assay type: cell-based
Conditions: for glycerol releasing activity (result in words) / Percent Glycerol Release over Background: human adipocytes in vitro; for glycerol releasing activity (result in words): 100 nanomolar, 1 micromolar and 10 micromolar; for lipid mobilization activity of insect AKH/HTP peptides and alanine walk analogs (result in words): Example 2, Table 8 peptides
Description: Two assay methods, giving equivalent results, can be used. The results disclosed in Example 2, below, were obtained using an in vitro assay based on measurement of glycerol released into the medium. An alternative assay system, based on the release of radioisotope from adipocytes incubated overnight with 9,10 ^3H-palmitate, can also be used.
Human subcutaneous preadipocytes, obtained by liposuction (Zen-Bio, Inc. Research Triangle Park, N.C.), are cultured for 3 weeks in 96-well plates in Differentiation medium (DMEM/Hams F10 [1/1, v/v], 15 mM Hepes buffer, 3% FBS, Penicillin/Streptomycin, 33 uM Biotin 17 uM Pantothenate, 100 nM human insulin, 0.5 uM Dexamethasone, 0.2 mM IBMX, and 10 uM thiazolidinedione.
The assay based on glycerol release is performed by removing the culture medium from differentiated cells, treating the cells with 0.1 ml of the test compounds at the appropriate doses in adipocyte medium (DMEM/Hank's F-10, 15 mM HEPES buffer, 3% FBS, penicillin/streptomycin) followed by incubation at 37 degrees Celsius for 2-5 hours. Isoproterenol is used as positive control and all assays are done in triplicate. At the end of the time points, 0.1 ml of the conditioned media from each well is transferred to a well of a new plate. Glycerol is quantified using standard enzymatic methods, with absorption by oxidized quinoneimine at 540 nm. Briefly, lipolytic activity can be assayed simply by the measurement of glycerol released into the medium since glycerokinase activity is not present in adipocytes (Carpene, C., Methods in Molecular Biology 155: Adipose Tissue Protocols, 1999). Glycerol released to the medium is phosphorylated by adenosine triphosphate (ATP) forming glycerol-1-phosphate (G-1-P) and adenosine-5′-diphosphate (ADP) in the reaction catalyzed by glycerol kinase. G-1-P is then oxidized by glycerol phosphate oxidase to dihydroxyacetone phosphate (DAP) and hydrogen peroxide (H2O2). […] The increase in absorbance at 540 nm is directly proportional to glycerol concentration of the sample.

[1] = peptide concentration 1 micro M
[2] = peptide concentration 10 micro M

Molecule	glycerol releasing activity (result in words)	Percent Glycerol Release over Background (peptide concentration 100 nM)	Percent Glycerol Release over Background [1]	Percent Glycerol Release over Background [2]	lipid mobilization activity of insect AKH/HTP peptides and alanine walk analogs (result in words)
pGlu-Leu-Asn-Phe-Thr-Ala-Ser-Trp-GlyNH2 ([pGlu]LNFTASWG-NH2; SMILES CC(C)C[C@H](NC(=O)[C@@H]1CCC(=O)N1)C(=O)N[C@@H](CC(N)=O)C(=O)N[C@@H](Cc1ccccc1)C(=O)N[C@H](C(=O)N[C@@H](C)C(=O)N[C@@H](CO)C(=O)N[C@@H](Cc1c[nH]c2ccccc12)C(=O)NCC(N)=O)[C@@H](C)O; listed as Homo sapiens) [Peptide 73]	low activity	0%	0.9%	3.8%	
pGlu-Leu-Asn-Phe-Thr-Pro-Asn-Trp-Gly-ThrNH2 ([pGlu]LNFTPNWGT-NH2; SMILES CC(C)C[C@H](NC(=O)[C@@H]1CCC(=O)N1)C(=O)N[C@@H](CC(N)=O)C(=O)N[C@@H](Cc1ccccc1)C(=O)N[C@H](C(=O)N1CCC[C@H]1C(=O)N[C@@H](CC(N)=O)C(=O)N[C@@H](Cc1c[nH]c2ccccc12)C(=O)NCC(=O)N[C@H](C(N)=O)[C@@H](C)O)[C@@H](C)O; listed as Locusta migratoria) [SEQ ID NO: 18, reference compound]					active
QLNFTASWG-NH2 [Peptide 72]		18%	11.3%	18.9%	
QLNFTASWG [Peptide 52]		0.9%	13.2%	17%	
pGlu-Leu-Thr-Phe-Thr-Ser-Ser-Trp-GlyNH2 ([pGlu]LTFTSSWG-NH2; SMILES CC(C)C[C@H](NC(=O)[C@@H]1CCC(=O)N1)C(=O)N[C@H](C(=O)N[C@@H](Cc1ccccc1)C(=O)N[C@H](C(=O)N[C@@H](CO)C(=O)N[C@@H](CO)C(=O)N[C@@H](Cc1c[nH]c2ccccc12)C(=O)NCC(N)=O)[C@@H](C)O)[C@@H](C)O; listed as Manduca sexta) [SEQ ID NO: 23, reference compound]					active
pGlu-Val-Asn-Phe-Ser-Pro-Gly-Trp-Gly-ThrNH2 ([pGlu]VNFSPGWGT-NH2; SMILES CC(C)[C@H](NC(=O)[C@@H]1CCC(=O)N1)C(=O)N[C@@H](CC(N)=O)C(=O)N[C@@H](Cc1ccccc1)C(=O)N[C@@H](CO)C(=O)N1CCC[C@H]1C(=O)NCC(=O)N[C@@H](Cc1c[nH]c2ccccc12)C(=O)NCC(=O)N[C@H](C(N)=O)[C@@H](C)O; listed as Blaberus discoidalis) [SEQ ID NO: 19, reference compound]					active
QLNFTASW [Peptide 53]		3.8%	36.8%	18.9%	
pGlu-Leu-Asn-Phe-Thr-Ala-Ser-TrpNH2 ([pGlu]LNFTASW-NH2; SMILES CC(C)C[C@H](NC(=O)[C@@H]1CCC(=O)N1)C(=O)N[C@@H](CC(N)=O)C(=O)N[C@@H](Cc1ccccc1)C(=O)N[C@H](C(=O)N[C@@H](C)C(=O)N[C@@H](CO)C(=O)N[C@@H](Cc1c[nH]c2ccccc12)C(N)=O)[C@@H](C)O; listed as Homo sapiens) [Peptide 55]	low activity	1.9%	5.7%	13.2%	
QLNFTASW-NH2 [Peptide 54]		2.8%	4.7%	8.5%	
pGlu-Leu-Asn-Phe-Thr-Ala-Ser-Trp ([pGlu]LNFTASW; listed as Homo sapiens) [Peptide 60]	no measurable activity				
CC(C)NCC(O)c1ccc(O)c(O)c1 (stereo not shown) [Iso, Isoproterenol, reference compound]		213%	262%	206%	
pGlu-Leu-Asn-Phe-Thr-Ala-Ser-Trp-Gly ([pGlu]LNFTASWG; listed as Homo sapiens) [Peptide 51]		3.8%	24.5%	34.9%	
pGlu-Leu-Asn-Phe-Ser-Thr-Gly-TrpNH2 ([pGlu]LNFSTGW-NH2; SMILES CC(C)C[C@H](NC(=O)[C@@H]1CCC(=O)N1)C(=O)N[C@@H](CC(N)=O)C(=O)N[C@@H](Cc1ccccc1)C(=O)N[C@@H](CO)C(=O)N[C@H](C(=O)NCC(=O)N[C@@H](Cc1c[nH]c2ccccc12)C(N)=O)[C@@H](C)O; listed as Schistocerca gregaria) [SEQ ID NO: 17, reference compound]					active
